From BigSolDB 2.1

SMILES: CS(N)(=O)=O
- solubility (mole fraction) (in ethanol, 283.13 K): 0.0265
- solubility (mole fraction) (in ethanol, 288.18 K): 0.0338
- solubility (mole fraction) (in ethanol, 293.14 K): 0.0412
- solubility (mole fraction) (in ethanol, 298.17 K): 0.0484
- solubility (mole fraction) (in ethanol, 302.16 K): 0.0614
- solubility (mole fraction) (in ethanol, 308.16 K): 0.0792
- solubility (mole fraction) (in ethanol, 313.06 K): 0.1
- solubility (mole fraction) (in ethanol, 318.07 K): 0.132
- solubility (mole fraction) (in ethanol, 323.16 K): 0.181
- solubility (mole fraction) (in ethyl acetate, 283.26 K): 0.0297
- solubility (mole fraction) (in ethyl acetate, 288.16 K): 0.0329
- solubility (mole fraction) (in ethyl acetate, 293.2 K): 0.0373
- solubility (mole fraction) (in ethyl acetate, 298.1 K): 0.0419
- solubility (mole fraction) (in ethyl acetate, 303.18 K): 0.0458
- solubility (mole fraction) (in ethyl acetate, 308.24 K): 0.0507
- solubility (mole fraction) (in ethyl acetate, 313.17 K): 0.0565
- solubility (mole fraction) (in ethyl acetate, 318.07 K): 0.0627
- solubility (mole fraction) (in ethyl acetate, 323.16 K): 0.0684
- solubility (mole fraction) (in isobutanol, 283.2 K): 0.0117
- solubility (mole fraction) (in isobutanol, 288.14 K): 0.0145
- solubility (mole fraction) (in isobutanol, 293.06 K): 0.0174
- solubility (mole fraction) (in isobutanol, 298.36 K): 0.0216
- solubility (mole fraction) (in isobutanol, 303.13 K): 0.026
- solubility (mole fraction) (in isobutanol, 308.14 K): 0.0309
- solubility (mole fraction) (in isobutanol, 313.04 K): 0.0384
- solubility (mole fraction) (in isobutanol, 318.16 K): 0.0481
- solubility (mole fraction) (in isobutanol, 323.04 K): 0.0592
- solubility (mole fraction) (in isopentanol, 283.16 K): 0.00502
- solubility (mole fraction) (in isopentanol, 288.14 K): 0.00747
- solubility (mole fraction) (in isopentanol, 293.16 K): 0.0108
- solubility (mole fraction) (in isopentanol, 298.17 K): 0.0138
- solubility (mole fraction) (in isopentanol, 303.05 K): 0.018
- solubility (mole fraction) (in isopentanol, 308.06 K): 0.0228
- solubility (mole fraction) (in isopentanol, 313.15 K): 0.0288
- solubility (mole fraction) (in isopropanol, 283.06 K): 0.0139
- solubility (mole fraction) (in isopropanol, 288.17 K): 0.0178
- solubility (mole fraction) (in isopropanol, 293.14 K): 0.0221
- solubility (mole fraction) (in isopropanol, 298.08 K): 0.0277
- solubility (mole fraction) (in isopropanol, 303.06 K): 0.0333
- solubility (mole fraction) (in isopropanol, 308.14 K): 0.044
- solubility (mole fraction) (in isopropanol, 313.14 K): 0.0556
- solubility (mole fraction) (in isopropanol, 318.16 K): 0.0704
- solubility (mole fraction) (in isopropanol, 323.04 K): 0.0917
- solubility (mole fraction) (in isopropyl acetate, 283.27 K): 0.0099
- solubility (mole fraction) (in isopropyl acetate, 288.14 K): 0.0112
- solubility (mole fraction) (in isopropyl acetate, 293.16 K): 0.0127
- solubility (mole fraction) (in isopropyl acetate, 298.34 K): 0.0148
- solubility (mole fraction) (in isopropyl acetate, 303.13 K): 0.0169
- solubility (mole fraction) (in isopropyl acetate, 308.1 K): 0.0195
- solubility (mole fraction) (in isopropyl acetate, 313.3 K): 0.0219
- solubility (mole fraction) (in isopropyl acetate, 318.22 K): 0.0251
- solubility (mole fraction) (in isopropyl acetate, 323.27 K): 0.0294
- solubility (mole fraction) (in methanol, 283.27 K): 0.0738
- solubility (mole fraction) (in methanol, 288.1 K): 0.0884
- solubility (mole fraction) (in methanol, 293.2 K): 0.108
- solubility (mole fraction) (in methanol, 298 K): 0.133
- solubility (mole fraction) (in methanol, 303.3 K): 0.163
- solubility (mole fraction) (in methanol, 308.36 K): 0.2
- solubility (mole fraction) (in methanol, 313.13 K): 0.243
- solubility (mole fraction) (in methanol, 318.1 K): 0.286
- solubility (mole fraction) (in methanol, 322.2 K): 0.33
- solubility (mole fraction) (in methyl propionate, 283.27 K): 0.0251
- solubility (mole fraction) (in methyl propionate, 288.27 K): 0.026
- solubility (mole fraction) (in methyl propionate, 293.06 K): 0.0291
- solubility (mole fraction) (in methyl propionate, 298.14 K): 0.0324
- solubility (mole fraction) (in methyl propionate, 303.36 K): 0.036
- solubility (mole fraction) (in n-butanol, 283.1 K): 0.0117
- solubility (mole fraction) (in n-butanol, 288.2 K): 0.0131
- solubility (mole fraction) (in n-butanol, 293.18 K): 0.015
- solubility (mole fraction) (in n-butanol, 298.16 K): 0.0172
- solubility (mole fraction) (in n-butanol, 303.26 K): 0.0218
- solubility (mole fraction) (in n-butanol, 308.06 K): 0.027
- solubility (mole fraction) (in n-pentanol, 283.14 K): 0.00546
- solubility (mole fraction) (in n-pentanol, 288.13 K): 0.00713
- solubility (mole fraction) (in n-pentanol, 293.14 K): 0.00998
- solubility (mole fraction) (in n-pentanol, 298.12 K): 0.0156
- solubility (mole fraction) (in n-pentanol, 303.06 K): 0.0219
- solubility (mole fraction) (in n-propanol, 283.16 K): 0.0125
- solubility (mole fraction) (in n-propanol, 288.14 K): 0.0153
- solubility (mole fraction) (in n-propanol, 293.08 K): 0.0185
- solubility (mole fraction) (in n-propanol, 298.14 K): 0.0213
- solubility (mole fraction) (in n-propanol, 303.12 K): 0.0296
- solubility (mole fraction) (in n-propanol, 308.24 K): 0.0375
- solubility (mole fraction) (in n-propanol, 313.18 K): 0.0471
- solubility (mole fraction) (in n-propanol, 318.24 K): 0.0608
- solubility (mole fraction) (in n-propanol, 323.24 K): 0.08
- solubility (mole fraction) (in n-propyl acetate, 283.07 K): 0.0114
- solubility (mole fraction) (in n-propyl acetate, 288.13 K): 0.0125
- solubility (mole fraction) (in n-propyl acetate, 293.26 K): 0.0141
- solubility (mole fraction) (in n-propyl acetate, 298.04 K): 0.0163
- solubility (mole fraction) (in n-propyl acetate, 303.14 K): 0.0185
- solubility (mole fraction) (in n-propyl acetate, 308.04 K): 0.0214
- solubility (mole fraction) (in n-propyl acetate, 313 K): 0.0243
- solubility (mole fraction) (in n-propyl acetate, 318.07 K): 0.028
- solubility (mole fraction) (in n-propyl acetate, 323.17 K): 0.0322
- solubility (mole fraction) (in sec-butanol, 283.3 K): 0.00628
- solubility (mole fraction) (in sec-butanol, 288.14 K): 0.0112
- solubility (mole fraction) (in sec-butanol, 293.13 K): 0.0166
- solubility (mole fraction) (in sec-butanol, 298.06 K): 0.0224
- solubility (mole fraction) (in sec-butanol, 303.1 K): 0.0284
- solubility (mole fraction) (in sec-butanol, 308.26 K): 0.036
- solubility (mole fraction) (in sec-butanol, 313.06 K): 0.0459
